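Five compound concentrations were applied to cells in 96-well plates for 48 hours; endpoints were derived by simple linear interpolation of the resulting dose-response curve. GI50: concentration for 50% inhibition of growth.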 Active and inactive are the calls of the source. Rule as the data show it: active = GI50 up to about 1.1 µM and inactive = higher. Some results are limits rather than exact numbers.

Among the test systems are OVCAR-5; HCT-15; Hs-578T; HOP-92; RPMI-8226; NCI-H226; MDA-MB-435; OVCAR-4; COLO 205; SK-MEL-5; SK-OV-3; MDA-MB-231; SR; LOX IMVI; K562; SF-539; SK-MEL-28; DU-145; EKVX; SF-268.
Assay in all cases: NCI tumour cell line growth inhibition, 48 h

On to `Nc1ccc2c(c1)C(=O)c1ccc(F)cc1-2`, for which the GI50 is > 100 µM (inactive) in the assay with OVCAR-5; over 100 µM with HCT-15; > 100 µM (inactive) with Hs-578T; > 100 µM (inactive) with HOP-92; > 100 µM (inactive) with RPMI-8226; > 100 µM (inactive) in the assay on NCI-H226. Besides, the GI50 in the assay with MDA-MB-435, in the assay on OVCAR-4, in the assay with COLO 205, with SK-MEL-5, in the assay on SK-OV-3 and in the assay on MDA-MB-231 was > 100 µM (inactive) each time. The GI50 with SR was 87.1 µM (inactive); in the assay with LOX IMVI, > 100 µM (inactive); in the assay on K562, > 100 µM (inactive); in the assay with SF-539 it was > 100 µM (inactive); in the assay with SK-MEL-28, > 100 µM (inactive); in the assay with DU-145 it was > 100 µM (inactive). For the same compound, the values for the GI50 in the assay on EKVX and in the assay with SF-268 were 72.4 µM (inactive) and > 100 µM (inactive), respectively.

Turning to `CC1=NN(c2nc(N)nc(COc3ccc(N)cc3)n2)C(C)(C)C1`, the GI50 with HCT-15 was over 100 µM; in the assay with Hs-578T, > 100 µM (inactive); in the assay on HOP-92, > 100 µM (inactive); with RPMI-8226 it was > 100 µM (inactive); in the assay on NCI-H226, > 100 µM (inactive); in the assay with MDA-MB-435 it was > 100 µM (inactive). Besides, the GI50 in the assay with OVCAR-4, with COLO 205, in the assay with SK-MEL-5, in the assay on SK-OV-3, in the assay with MDA-MB-231 and in the assay with SR was > 100 µM (inactive) each time. The GI50 with LOX IMVI, in the assay on K562, with SF-539, with SK-MEL-28, in the assay on DU-145 and in the assay on EKVX was > 100 µM (inactive) throughout. In addition, the GI50 in the assay with SF-268 is > 100 µM (inactive).

Take `COC1(OC)CCc2c(sc3ncnc(Nc4cccc(Br)c4)c23)C1`: the GI50 in the assay with OVCAR-5 was 20.7 µM (inactive); in the assay with HCT-15, 30.8 µM; in the assay with Hs-578T it was > 100 µM (inactive); with HOP-92 it was 30.5 µM (inactive); in the assay with RPMI-8226, 17 µM (inactive); in the assay on NCI-H226 it was 43.8 µM (inactive). Further, the GI50 in the assay with MDA-MB-435 is 62.2 µM (inactive); in the assay on OVCAR-4 it was 27.7 µM (inactive); in the assay with COLO 205, 35.4 µM (inactive); in the assay on SK-MEL-5, 30.9 µM (inactive); in the assay on SK-OV-3, > 100 µM (inactive); in the assay on MDA-MB-231, 49.5 µM (inactive). For the same compound, the GI50 with SR was 26.2 µM (inactive); with LOX IMVI, 35.7 µM (inactive); in the assay on K562 it was 26.2 µM (inactive); in the assay on SF-539, > 100 µM (inactive); in the assay on DU-145 it was 10.9 µM (inactive); in the assay on EKVX, 11.2 µM (inactive). Further, the GI50 in the assay with SF-268 was 69.5 µM (inactive).

In the case of `CC1=NN(c2cccc(Cl)c2)C2(SCC(=O)N2c2nc3ccccc3s2)/C1=C\c1ccccc1` (stereo not drawn), the GI50 with OVCAR-5 is 22.4 µM (inactive); with HCT-15, 16 µM; in the assay with Hs-578T, 18.4 µM (inactive); in the assay with HOP-92 it was 7.21 µM (inactive); in the assay with RPMI-8226 it was 18.7 µM (inactive); in the assay with NCI-H226, 19 µM (inactive). For the same compound, the GI50 in the assay on MDA-MB-435 is 18.3 µM (inactive); in the assay on OVCAR-4, 16.7 µM (inactive); with SK-MEL-5, 12.6 µM (inactive); in the assay on SK-OV-3, 19.9 µM (inactive); in the assay with MDA-MB-231 it was 24.4 µM (inactive); in the assay with SR, 22.3 µM (inactive). Also, the GI50 with LOX IMVI is 25.5 µM (inactive); in the assay on K562 it was 17.6 µM (inactive); in the assay with SF-539 it was 26.4 µM (inactive); in the assay on SK-MEL-28, 27.5 µM (inactive); with DU-145 it was 22 µM (inactive); in the assay with EKVX it was 36.4 µM (inactive). Besides, the GI50 in the assay on SF-268 was 21.4 µM (inactive).

Consider `NCC(O)CNCC/C=C\C/C=C\C/C=C\C/C=C\C/C=C\C/C=C\CCCCC/C=C\CCNCC(O)CN` (stereo not drawn), for which the GI50 in the assay on OVCAR-5 was 1.94 µM (inactive); with HCT-15, 1.6 µM; in the assay with Hs-578T, 1.36 µM (inactive); with HOP-92 it was 2.01 µM (inactive); in the assay with RPMI-8226 it was 1.66 µM (inactive); in the assay on NCI-H226, 2.64 µM (inactive). Also, the GI50 is 1.65 µM (inactive) with MDA-MB-435; 1.93 µM (inactive) in the assay on OVCAR-4; 1.96 µM (inactive) in the assay with COLO 205; 2.64 µM (inactive) in the assay on SK-OV-3; 1.75 µM (inactive) with MDA-MB-231; 0.435 µM (active) in the assay on SR. In addition, the GI50 is 1.79 µM (inactive) with LOX IMVI; 2.29 µM (inactive) in the assay with K562; 1.9 µM (inactive) with SF-539; 3.4 µM (inactive) in the assay on SK-MEL-28; 1.77 µM (inactive) with DU-145; 0.731 µM (active) with EKVX. Moreover, the GI50 in the assay on SF-268 was 1.83 µM (inactive).

With `N#CCCN(CCC#N)c1ccc(C(/N=N/c2ccc(Cl)cc2)=N\c2ccccc2)cc1`, the GI50 in the assay on OVCAR-5 was 12.4 µM (inactive); with HCT-15, 5.93 µM; in the assay with Hs-578T it was 18.9 µM (inactive); with HOP-92, 16.4 µM (inactive); in the assay with RPMI-8226, 43.6 µM (inactive); in the assay with NCI-H226, 16 µM (inactive). For the same compound, the GI50 is 11 µM (inactive) in the assay on MDA-MB-435; 11.6 µM (inactive) in the assay with OVCAR-4; 3.2 µM (inactive) with COLO 205; 1.24 µM (inactive) in the assay with SK-MEL-5; 13.2 µM (inactive) in the assay with SK-OV-3; 18.1 µM (inactive) in the assay on MDA-MB-231. Further, the GI50 is 16 µM (inactive) in the assay with SR; 41.7 µM (inactive) in the assay on K562; 14.9 µM (inactive) in the assay with SF-539; 15.3 µM (inactive) with SK-MEL-28; 13.4 µM (inactive) in the assay with DU-145; 12.1 µM (inactive) with EKVX. Moreover, the GI50 in the assay on SF-268 was 13.2 µM (inactive).

With `O=C(c1ccccc1)c1ccc2c(c1)nc1n2C(c2c(Cl)cccc2Cl)SC1` (stereo not drawn), the GI50 in the assay on OVCAR-5 is > 100 µM (inactive); with HCT-15, 56 µM; in the assay on Hs-578T, 84.1 µM (inactive); with HOP-92, 69 µM (inactive); in the assay with RPMI-8226, 52.4 µM (inactive); in the assay with NCI-H226 it was > 100 µM (inactive). In addition, the GI50 in the assay on MDA-MB-435 was 59.2 µM (inactive); in the assay on OVCAR-4, 75.7 µM (inactive); in the assay with COLO 205 it was 45.6 µM (inactive); in the assay with SK-MEL-5 it was 27.5 µM (inactive); with SK-OV-3 it was > 100 µM (inactive); with MDA-MB-231, > 100 µM (inactive). Further, the GI50 in the assay with SR is 34 µM (inactive); with LOX IMVI, 44 µM (inactive); with SF-539, > 100 µM (inactive); in the assay on SK-MEL-28, > 100 µM (inactive); in the assay on DU-145 it was > 100 µM (inactive); with EKVX, 50.4 µM (inactive). For the same compound, the GI50 in the assay with SF-268 was 67.5 µM (inactive).

Regarding `O=c1[nH]cc(F)c(=O)[nH]1` [FLUOROURACIL], the GI50 in the assay with OVCAR-5 is 172 µM (inactive); in the assay with Hs-578T it was 225 µM (inactive); in the assay on HOP-92, 162 µM (inactive); in the assay on RPMI-8226, 4.91 µM (inactive); in the assay on NCI-H226 it was 250 µM (inactive); in the assay on MDA-MB-435 it was 10.6 µM (inactive). Also, the GI50 in the assay with OVCAR-4 is 69.7 µM (inactive); in the assay on SK-MEL-5 it was 11.6 µM (inactive); in the assay on SK-OV-3 it was 171 µM (inactive); in the assay with MDA-MB-231, 489 µM (inactive); with SR, 4.36 µM (inactive); in the assay with LOX IMVI, 6.03 µM (inactive). The GI50 with K562 was 21.2 µM (inactive); with SF-539, 1.33 µM (inactive); with SK-MEL-28, 50.2 µM (inactive); with DU-145, 9.29 µM (inactive); in the assay on EKVX, 299 µM (inactive); in the assay on SF-268, 51.4 µM (inactive).

Regarding `Cc1ccc([N+](=O)[O-])cc1S(=O)(=O)Nc1ccc(C2=NNC(c3ccccc3)C2)cc1` (stereo not drawn), the GI50 was 53.2 µM (inactive) in the assay with OVCAR-5; 10.4 µM in the assay on HCT-15; 22.5 µM (inactive) with Hs-578T; 33.3 µM (inactive) with HOP-92; 7.24 µM (inactive) in the assay on RPMI-8226; 32.9 µM (inactive) with NCI-H226. The GI50 in the assay with MDA-MB-435 is 17.1 µM (inactive); in the assay on OVCAR-4 it was 14.5 µM (inactive); in the assay on COLO 205 it was 16.9 µM (inactive); in the assay on SK-MEL-5, 14.7 µM (inactive); in the assay on SK-OV-3, 15.5 µM (inactive); in the assay on MDA-MB-231 it was 15.3 µM (inactive). The GI50 in the assay with SR was 15.1 µM (inactive); in the assay with K562 it was 6.73 µM (inactive); in the assay with SF-539 it was 28.1 µM (inactive); in the assay on SK-MEL-28, 25.2 µM (inactive); in the assay with DU-145, 27.9 µM (inactive); with EKVX it was 21 µM (inactive). Moreover, the GI50 with SF-268 is 16.8 µM (inactive).

On to `CC(=O)Nc1ccc(-c2nc3ccccc3s2)cc1C`, for which the GI50 in the assay on HCT-15 was over 100 µM; in the assay on Hs-578T, 45.4 µM (inactive); in the assay on HOP-92, > 100 µM (inactive); in the assay with RPMI-8226, 55.2 µM (inactive); in the assay with NCI-H226 it was 26.9 µM (inactive); in the assay on MDA-MB-435, > 100 µM (inactive). For the same compound, the GI50 with OVCAR-4 was 42.5 µM (inactive); in the assay on COLO 205, 45 µM (inactive); in the assay with SK-MEL-5, 58.9 µM (inactive); in the assay on SK-OV-3 it was 32.6 µM (inactive); in the assay on MDA-MB-231, 20 µM (inactive); in the assay with SR, 27.7 µM (inactive). Moreover, the GI50 is 36.5 µM (inactive) with LOX IMVI; 50.8 µM (inactive) in the assay with SF-539; 99.1 µM (inactive) in the assay with SK-MEL-28; 22.2 µM (inactive) with DU-145; 25.1 µM (inactive) in the assay on EKVX; 64.4 µM (inactive) in the assay with SF-268.

Regarding `O=C(Nc1cccc(Cl)c1)Nn1cnnc1`, the GI50 in the assay with OVCAR-5 is 0.339 µM (active); in the assay with HCT-15, over 100 µM; with Hs-578T, > 100 µM (inactive); in the assay on HOP-92, > 100 µM (inactive); in the assay on RPMI-8226, > 100 µM (inactive); with NCI-H226 it was > 100 µM (inactive). Moreover, the GI50 in the assay on MDA-MB-435, in the assay on OVCAR-4, in the assay with COLO 205, with SK-MEL-5, in the assay on SK-OV-3 and in the assay with MDA-MB-231 was > 100 µM (inactive) throughout. The GI50 in the assay on SR, in the assay with K562, in the assay on SF-539, in the assay with SK-MEL-28, in the assay with DU-145 and in the assay on EKVX was > 100 µM (inactive) throughout. The GI50 in the assay with SF-268 was > 100 µM (inactive).

(Values after ChEMBL document CHEMBL1201862, “PubChem BioAssay data set” (2004).)
